# Results published in ChEMBL document CHEMBL1201862, “PubChem BioAssay data set” (2004).
#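 These data come from cells grown in 96-well plates and exposed to compound for 48 hours at five concentrations. GI50 marks 50% less growth.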 The source made the active and inactive calls. No stated cut-off is given here; in the data, active = GI50 up to about 1.1 µM and inactive = higher.
# Key:
# Assay in all cases: growth of human tumour cells (NCI), 48 h
# [1] = test system: BT-549
# [2] = test system: SF-295
# [3] = test system: SR
# [4] = test system: PC-3
# [5] = test system: MCF7
# [6] = test system: HL-60
# [7] = test system: SNB-19
# [8] = test system: UACC-62
# [9] = test system: MDA-N
# [10] = test system: T47D
# [11] = test system: ACHN
# [12] = test system: SNB-75
# [13] = test system: SK-MEL-28
# [14] = test system: SW-620
# [15] = test system: Malme-3M
# [16] = test system: HCT-116
# [17] = test system: CAKI-1
# [18] = test system: 786-0
# [19] = test system: U-251
# [20] = test system: SN12C
# [21] = test system: A549
# [22] = test system: RPMI-8226
# [23] = test system: UO-31
# [24] = test system: SK-MEL-2
# [25] = test system: HT-29
# [26] = test system: MDA-MB-231
# [27] = test system: MOLT-4
# [28] = test system: TK-10
# [29] = test system: CCRF-CEM
# [30] = test system: OVCAR-4
# [31] = test system: HCT-15
# [32] = test system: OVCAR-8
# [33] = test system: SF-539
# [34] = test system: NCI-H226
# [35] = test system: EKVX
# [36] = test system: OVCAR-3
# [37] = test system: MDA-MB-435
# [38] = test system: RXF 393
# [39] = test system: NCI/ADR-RES
# [40] = test system: HOP-92
# [41] = test system: K562
# [42] = test system: LOX IMVI
# [43] = test system: SK-OV-3
# [44] = test system: M14
# [45] = test system: DU-145
# [46] = test system: NCI-H522
# [47] = test system: KM12
# [48] = test system: UACC-257
# [49] = test system: IGROV-1
# [50] = test system: SF-268
# [51] = test system: COLO 205
# [52] = test system: OVCAR-5
# [53] = test system: Hs-578T
# [54] = test system: HOP-62
# [55] = test system: NCI-H460
# [56] = test system: SK-MEL-5
# [57] = test system: HCC 2998
# [58] = test system: NCI-H23
# [59] = test system: A498
structure (smiles),measurement,setting,value
CC1=C(/C=C/C(C)=C/C=C/C(C)=C/C(=O)OC2CC(n3cc(F)c(=O)[nH]c3=O)OC2CO)C(C)(C)CCC1 (stereo unspecified),GI50,[1],1.58 µM (inactive)
same,GI50,[2],0.148 µM (active)
same,GI50,[3],0.247 µM (active)
same,GI50,[4],1.99 µM (inactive)
same,GI50,[5],0.057 µM (active)
same,GI50,[6],0.628 µM (active)
same,GI50,[7],3.34 µM (inactive)
same,GI50,[8],0.184 µM (active)
same,GI50,[9],6.82 µM (inactive)
same,GI50,[10],4.17 µM (inactive)
same,GI50,[11],0.082 µM (active)
same,GI50,[12],1.07 µM (active)
same,GI50,[13],7.73 µM (inactive)
same,GI50,[14],10.6 µM (inactive)
same,GI50,[15],12.1 µM (inactive)
same,GI50,[16],0.748 µM (active)
same,GI50,[17],0.383 µM (active)
same,GI50,[18],0.52 µM (active)
same,GI50,[19],1.2 µM (inactive)
same,GI50,[20],4.5 µM (inactive)
same,GI50,[21],0.153 µM (active)
same,GI50,[22],0.254 µM (active)
same,GI50,[23],0.431 µM (active)
same,GI50,[24],24.9 µM (inactive)
same,GI50,[25],2.71 µM (inactive)
same,GI50,[26],9.73 µM (inactive)
same,GI50,[27],0.2 µM (active)
same,GI50,[28],11.5 µM (inactive)
same,GI50,[29],0.374 µM (active)
same,GI50,[30],6.01 µM (inactive)
same,GI50,[31],4.35 µM
same,GI50,[32],0.526 µM (active)
same,GI50,[33],0.0577 µM (active)
same,GI50,[34],25.4 µM (inactive)
same,GI50,[35],13.9 µM (inactive)
same,GI50,[36],4.72 µM (inactive)
same,GI50,[37],3.97 µM (inactive)
same,GI50,[38],6.3 µM (inactive)
same,GI50,[39],2.05 µM (inactive)
same,GI50,[40],11.3 µM (inactive)
same,GI50,[41],1.63 µM (inactive)
same,GI50,[42],2.15 µM (inactive)
same,GI50,[43],2.05 µM (inactive)
same,GI50,[44],1.35 µM (inactive)
same,GI50,[45],0.476 µM (active)
same,GI50,[46],1.17 µM (inactive)
same,GI50,[47],12.2 µM (inactive)
same,GI50,[48],7.91 µM (inactive)
same,GI50,[49],7.13 µM (inactive)
same,GI50,[50],0.252 µM (active)
same,GI50,[51],6.93 µM (inactive)
same,GI50,[52],17.3 µM (inactive)
same,GI50,[53],6.62 µM (inactive)
same,GI50,[54],0.158 µM (active)
same,GI50,[55],0.0429 µM (active)
same,GI50,[56],1.18 µM (inactive)
same,GI50,[57],1.97 µM (inactive)
same,GI50,[58],2.75 µM (inactive)
C[N+](C)(C)CC(=O)N/N=C/c1ccncc1,GI50,[1],> 100 µM (inactive)
same,GI50,[2],> 100 µM (inactive)
same,GI50,[3],> 100 µM (inactive)
same,GI50,[4],> 100 µM (inactive)
same,GI50,[5],> 100 µM (inactive)
same,GI50,[6],65.6 µM (inactive)
same,GI50,[7],> 100 µM (inactive)
same,GI50,[8],> 100 µM (inactive)
same,GI50,[9],> 100 µM (inactive)
same,GI50,[10],> 100 µM (inactive)
same,GI50,[11],> 100 µM (inactive)
same,GI50,[12],> 100 µM (inactive)
same,GI50,[13],> 100 µM (inactive)
same,GI50,[14],> 100 µM (inactive)
same,GI50,[15],> 100 µM (inactive)
same,GI50,[16],> 100 µM (inactive)
same,GI50,[17],> 100 µM (inactive)
same,GI50,[18],> 100 µM (inactive)
same,GI50,[19],> 100 µM (inactive)
same,GI50,[20],> 100 µM (inactive)
same,GI50,[21],> 100 µM (inactive)
same,GI50,[22],> 100 µM (inactive)
same,GI50,[23],> 100 µM (inactive)
same,GI50,[24],> 100 µM (inactive)
same,GI50,[25],> 100 µM (inactive)
same,GI50,[26],> 100 µM (inactive)
same,GI50,[27],> 100 µM (inactive)
same,GI50,[28],> 100 µM (inactive)
same,GI50,[29],> 100 µM (inactive)
same,GI50,[30],> 100 µM (inactive)
same,GI50,[31],> 100 µM
same,GI50,[32],> 100 µM (inactive)
same,GI50,[33],> 100 µM (inactive)
same,GI50,[34],> 100 µM (inactive)
same,GI50,[35],> 100 µM (inactive)
same,GI50,[36],> 100 µM (inactive)
same,GI50,[37],> 100 µM (inactive)
same,GI50,[38],> 100 µM (inactive)
same,GI50,[39],> 100 µM (inactive)
same,GI50,[59],> 100 µM (inactive)
same,GI50,[40],> 100 µM (inactive)
same,GI50,[41],> 100 µM (inactive)
same,GI50,[42],> 100 µM (inactive)
same,GI50,[43],> 100 µM (inactive)
same,GI50,[44],> 100 µM (inactive)
same,GI50,[45],> 100 µM (inactive)
same,GI50,[46],> 100 µM (inactive)
same,GI50,[47],> 100 µM (inactive)
same,GI50,[48],> 100 µM (inactive)
same,GI50,[49],> 100 µM (inactive)
same,GI50,[50],> 100 µM (inactive)
same,GI50,[51],> 100 µM (inactive)
same,GI50,[52],> 100 µM (inactive)
same,GI50,[53],> 100 µM (inactive)
same,GI50,[54],> 100 µM (inactive)
same,GI50,[55],> 100 µM (inactive)
same,GI50,[56],> 100 µM (inactive)
same,GI50,[58],> 100 µM (inactive)
